Experimental findings from US11986532B2 (Arvinas Operations, Inc., priority 2021, dated 2024) are described below.

The DC50 is the concentration at which degradation of the target reaches its halfway point. Usually Dmax stands for the largest share of the target that was removed.

Like-named read-outs stand apart in the source and are kept apart here.

The target in this assay is T1, BCL6 (Homo sapiens, UniProt P41182).
T1 construct: endogenous in cells; host or cells: T47D breast cancer epithelial cells
Description: Immunofluorescence protocol for high content imaging of BCL6 (degradation) in T47D cells, 3 days compound treatment. Format: cell-based. As to conditions: for DC50: read-out: Mean DC50 (nM)* category; for Dmax: read-out: Mean Dmax (%)** category. In short, it runs like this:
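T47D, RPMI1640/10% FBS; cpd 11-pt 3-fold, top 0.1 or 1 μM final; 3 d, 37° C. Fix 4% PFA, perm 0.1% Triton, block 3% BSA; anti-BCL6 1:300 o/n 4° C; Alexa-488 2°, CellMask-647, Hoechst. Imaged 10×, 4 fields/well.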

Where [1] appears, read: T47D cells, 3 days compound treatment.

Take `CNC(=O)COc1cc2cc(Nc3nc(N4CCC(O[C@H]5C[C@H](N6CC[C@@H](c7ccc8c(c7F)CN([C@H]7CCC(=O)NC7=O)C8=O)C(C)(C)C6)C5)CC4)ncc3Cl)ccc2n(C(C)C)c1=O` [Compound 209, 2-({6-[(5-chloro-2-{4-[(1r,3r)-3-[(4R)-4-{2-[(3S)-2,6-dioxopiperidin-3-yl]-4-fluoro-1-oxo-2,3-dihydro-1H-isoindol-5-yl}-3,3-dimethylpiperidin-1-yl]cyclobutoxy]piperidin-1-yl}pyrimidin-4-yl)amino]-2-oxo-1-(propan-2-yl)-1,2-dihydroquinolin-3-yl}oxy)-N-methylacetamide]: under setting [1], the DC50 is < 10 nM and the Dmax is ≥ 70%.
Taken in the same sequence, the figures for `CNC(=O)COc1cc2cc(Nc3nc(N4CCC(O[C@H]5C[C@H](N6CC[C@H](c7ccc8c(c7F)CN([C@H]7CCC(=O)NC7=O)C8=O)C(C)(C)C6)C5)CC4)ncc3Cl)ccc2n(C(C)C)c1=O` [Compound 210, 2-({6-[(5-chloro-2-{4-[(1r,3r)-3-[(4S)-4-{2-[(3S)-2,6-dioxopiperidin-3-yl]-4-fluoro-1-oxo-2,3-dihydro-1H-isoindol-5-yl}-3,3-dimethylpiperidin-1-yl]cyclobutoxy]piperidin-1-yl}pyrimidin-4-yl)amino]-2-oxo-1-(propan-2-yl)-1,2-dihydroquinolin-3-yl}oxy)-N-methylacetamide] were < 10 nM and ≥ 70%.
As to `CNC(=O)COc1cc2cc(Nc3nc(N4CCC(O[C@H]5C[C@H](N6CCN(c7ccc8c(c7)CN([C@H]7CCC(=O)NC7=O)C8=O)C(C)(C)C6)C5)CC4)ncc3Cl)ccc2n(C(C)C)c1=O` [Compound 211, 2-({6-[(5-chloro-2-{4-[(1r,3r)-3-{4-[2-(2,6-dioxopiperidin-3-yl)-1-oxo-2,3-dihydro-1H-isoindol-5-yl]-3,3-dimethylpiperazin-1-yl}cyclobutoxy]piperidin-1-yl}pyrimidin-4-yl)amino]-2-oxo-1-(propan-2-yl)-1,2-dihydroquinolin-3-yl}oxy)-N-methylacetamide], the DC50 is < 10 nM. For the same molecule, for the setting “T47D”, the Dmax was ≥ 70%.
Consider `CNC(=O)COc1cc2cc(Nc3nc(N4CCC(O[C@H]5C[C@H](N6CCC(c7cc8c(cc7C(F)(F)F)C(=O)N(C7CCC(=O)NC7=O)C8)CC6)C5)CC4)ncc3Cl)ccc2n(C(C)C)c1=O` (stereo partly drawn) [Compound 212, 2-({6-[(5-chloro-2-{4-[(1r,3r)-3-{4-[2-(2,6-dioxopiperidin-3-yl)-1-oxo-6-(trifluoromethyl)-2,3-dihydro-1H-isoindol-5-yl]piperidin-1-yl}cyclobutoxy]piperidin-1-yl}pyrimidin-4-yl)amino]-2-oxo-1-(propan-2-yl)-1,2-dihydroquinolin-3-yl}oxy)-N-methylacetamide], for which the DC50 was < 10 nM. In addition, the Dmax (T47D) lay in the range of 50 to 70%.
Consider `CNC(=O)COc1cc2cc(Nc3nc(N4CCC(CN5CC(N6CCC(c7ccc8c(c7)C(=O)N(C7CCC(=O)NC7=O)C8=O)C(F)C6)C5)CC4)ncc3Cl)ccc2n(C(C)C)c1=O` (stereo not drawn) [Compound 213, 2-({6-[(5-chloro-2-{4-[(3-{4-[2-(2,6-dioxopiperidin-3-yl)-1,3-dioxo-2,3-dihydro-1H-isoindol-5-yl]-3-fluoropiperidin-1-yl}azetidin-1-yl)methyl]piperidin-1-yl}pyrimidin-4-yl)amino]-2-oxo-1-(propan-2-yl)-1,2-dihydroquinolin-3-yl}oxy)-N-methylacetamide], for which the DC50 fell in the range of 10 to 50 nM. For the same molecule, under “T47D”, the Dmax was in the range of 50 to 70%.
`CNC(=O)COc1cc2cc(Nc3nc(N4CCC(O[C@H]5C[C@H](N6CCC(c7ccc8c(n7)CN(C7CCC(=O)NC7=O)C8=O)CC6)C5)CC4)ncc3Cl)ccc2n(C(C)C)c1=O` (stereo partly drawn) [Compound 214, 2-({6-[(5-chloro-2-{4-[(1r,3r)-3-{4-[6-(2,6-dioxopiperidin-3-yl)-5-oxo-5H,6H,7H-pyrrolo[3,4-b]pyridin-2-yl]piperidin-1-yl}cyclobutoxy]piperidin-1-yl}pyrimidin-4-yl)amino]-2-oxo-1-(propan-2-yl)-1,2-dihydroquinolin-3-yl}oxy)-N-methylacetamide]: the DC50 was < 10 nM. The Dmax (T47D) fell in the range of 50 to 70%.
Taken in the same sequence, the figures for `CNC(=O)COc1cc2cc(Nc3cc(N4CCC(CN5CCC6(CC5)CN(c5ccc7c(c5)C(=O)N(C5CCC(=O)NC5=O)C7=O)C6)CC4)ncc3Cl)ccc2n(C(C)C)c1=O` (stereo not drawn) [Compound 215, 2-{[6-({5-chloro-2-[4-({2-[2-(2,6-dioxopiperidin-3-yl)-1,3-dioxoisoindol-5-yl]-2,7-diazaspiro[3.5]nonan-7-yl}methyl)piperidin-1-yl]pyridin-4-yl}amino)-1-isopropyl-2-oxoquinolin-3-yl]oxy}-N-methylacetamide] were 10 to 50 nM and 50 to 70%.
Taken in the same sequence, the figures for `CNC(=O)COc1cc2cc(Nc3nc(N4CCC(O[C@H]5C[C@H](N6CCC(c7cnc8c(c7)CN(C7CCC(=O)NC7=O)C8=O)CC6)C5)CC4)ncc3Cl)ccc2n(C(C)C)c1=O` (stereo partly drawn) [Compound 216, 2-({6-[(5-chloro-2-{4-[(1r,3r)-3-{4-[6-(2,6-dioxopiperidin-3-yl)-7-oxo-5H,6H,7H-pyrrolo[3,4-b]pyridin-3-yl]piperidin-1-yl}cyclobutoxy]piperidin-1-yl}pyrimidin-4-yl)amino]-2-oxo-1-(propan-2-yl)-1,2-dihydroquinolin-3-yl}oxy)-N-methylacetamide] were < 10 nM and 50 to 70%.
As for `CNC(=O)COc1cc2cc(Nc3nc(N4CCC(CN5CC(N6CCC(c7ccc8c(c7)CN(C7CCC(=O)NC7=O)C8=O)C(F)C6)C5)CC4)ncc3Cl)ccc2n(C(C)C)c1=O` (stereo not drawn) [Compound 217, 2-({6-[(5-chloro-2-{4-[(3-{4-[2-(2,6-dioxopiperidin-3-yl)-1-oxo-2,3-dihydro-1H-isoindol-5-yl]-3-fluoropiperidin-1-yl}azetidin-1-yl)methyl]piperidin-1-yl}pyrimidin-4-yl)amino]-2-oxo-1-(propan-2-yl)-1,2-dihydroquinolin-3-yl}oxy)-N-methylacetamide], the half-maximal degradation concentration (DC50) was < 10 nM. Besides, the Dmax (T47D) was in the range of 50 to 70%.
In the same order, the values of `CNC(=O)COc1cc2cc(Nc3nc(N4CCC(O[C@H]5C[C@H](N6CCC(c7ccc8c(c7)CN(C7CCC(=O)NC7=O)C8=O)C(F)(F)C6)C5)CC4)ncc3Cl)ccc2n(C(C)C)c1=O` (stereo partly drawn) [Compound 218, 2-[[6-[[5-chloro-2-[4-[3-[4-[2-(2,6-dioxo-3-piperidyl)-1-oxo-isoindolin-5-yl]-3,3-difluoro-1-piperidyl]cyclobutoxy]-1-piperidyl]pyrimidin-4-yl]amino]-1-isopropyl-2-oxo-3-quinolyl]oxy]-N-methyl-acetamide] are < 10 nM and ≥ 70%.
On to `CNC(=O)COc1cc2cc(Nc3nc(N4CCC(O[C@H]5C[C@H](N6CCC(c7cc8c(cn7)C(=O)N(C7CCC(=O)NC7=O)C8)CC6)C5)CC4)ncc3Cl)ccc2n(C(C)C)c1=O` (stereo partly drawn) [Compound 219, 2-({6-[(5-chloro-2-{4-[(1r,3r)-3-{4-[2-(2,6-dioxopiperidin-3-yl)-3-oxo-1H,2H,3H-pyrrolo[3,4-c]pyridin-6-yl]piperidin-1-yl}cyclobutoxy]piperidin-1-yl}pyrimidin-4-yl)amino]-2-oxo-1-(propan-2-yl)-1,2-dihydroquinolin-3-yl}oxy)-N-methylacetamide], for which the DC50 was < 10 nM. Further, the Dmax (T47D) is 50 to 70%.
`CNC(=O)COc1cc2cc(Nc3nc(N4CCC(N5CCC56CN(C5CCN(c7ccc8c(c7)C(=O)N(C7CCC(=O)NC7=O)C8=O)CC5)C6)CC4)ncc3Cl)ccc2n(C(C)C)c1=O` (stereo not drawn) [Compound 220, 2-{[6-({5-chloro-2-[4-(6-{1-[2-(2,6-dioxopiperidin-3-yl)-1,3-dioxo-2,3-dihydro-1H-isoindol-5-yl]piperidin-4-yl}-1,6-diazaspiro[3.3]heptan-1-yl)piperidin-1-yl]pyrimidin-4-yl}amino)-2-oxo-1-(propan-2-yl)-1,2-dihydroquinolin-3-yl]oxy}-N-methylacetamide]: the DC50 was in the range of 10 to 50 nM. Under “T47D”, the Dmax was 50 to 70%.
Take `CNC(=O)COc1cc2cc(Nc3nc(N4CCC(N5CCC56CN(C5CCN(c7ccc8c(c7)C(=O)N(C7CCC(=O)NC7=O)C8=O)C5)C6)CC4)ncc3Cl)ccc2n(C(C)C)c1=O` (stereo not drawn) [Compound 221, 2-{[6-({5-chloro-2-[4-(6-{1-[2-(2,6-dioxopiperidin-3-yl)-1,3-dioxo-2,3-dihydro-1H-isoindol-5-yl]pyrrolidin-3-yl}-1,6-diazaspiro[3.3]heptan-1-yl)piperidin-1-yl]pyrimidin-4-yl}amino)-2-oxo-1-(propan-2-yl)-1,2-dihydroquinolin-3-yl]oxy}-N-methylacetamide]: the DC50 was < 10 nM. Besides, the Dmax (T47D) was 50 to 70%.
Taken in the same sequence, the figures for `CNC(=O)COc1cc2cc(Nc3nc(N4CCC(N5CCC56CN(C5CCCN(c7ccc8c(c7)CN(C7CCC(=O)NC7=O)C8=O)C5)C6)CC4)ncc3Cl)ccc2n(C(C)C)c1=O` (stereo not drawn) [Compound 222, 2-{[6-({5-chloro-2-[4-(6-{1-[2-(2,6-dioxopiperidin-3-yl)-1-oxo-2,3-dihydro-1H-isoindol-5-yl]piperidin-3-yl}-1,6-diazaspiro[3.3]heptan-1-yl)piperidin-1-yl]pyrimidin-4-yl}amino)-2-oxo-1-(propan-2-yl)-1,2-dihydroquinolin-3-yl]oxy}-N-methylacetamide] were < 10 nM and 50 to 70%.
In the same order, the values of `CNC(=O)COc1cc2cc(Nc3nc(N4CCC(N5CCC6(C5)CN(C5CCN(c7ccc8c(c7)C(=O)N(C7CCC(=O)NC7=O)C8=O)CC5)C6)CC4)ncc3Cl)ccc2n(C(C)C)c1=O` (stereo not drawn) [Compound 224, 2-{[6-({5-chloro-2-[4-(2-{1-[2-(2,6-dioxopiperidin-3-yl)-1,3-dioxo-2,3-dihydro-1H-isoindol-5-yl]piperidin-4-yl}-2,6-diazaspiro[3.4]octan-6-yl)piperidin-1-yl]pyrimidin-4-yl}amino)-2-oxo-1-(propan-2-yl)-1,2-dihydroquinolin-3-yl]oxy}-N-methylacetamide] are 10 to 50 nM and ≥ 70%.
